Assay results from patent publication US5393788A, “Phenylalkyl oxamides” (SmithKline Beecham Corporation, priority 1993, dated 1995).

Legend:
[1] = test system: serum TNF; assay: LPS/GAL mouse model of endotoxic shock; type: in vivo
Source text: (§1) Two models of endotoxin shock have been utilized to determine in vivo TNF activity for the compounds of Formula (1). The protocol used in these models is described in Badger et al., EPO published Application 0 411 754 A2, Feb. 6, 1991, and in Hanna, WO 90/15534, Dec. 27, 1990.

[2] = test system: TNF production / endotoxic shock; assay: P acnes/LPS treated mice model of endotoxic shock; type: in vivo
Source text: as §1

[3] = test system: TNF / endotoxin shock; assay: Two in vivo models of endotoxin shock (one or both, not specified); design: species or system mouse; details: for protection from the lethal effects of endotoxin shock: in vivo endotoxin shock models
Source text: as §1

SMILES: COc1ccc(CCNC(=O)C(N)=O)cc1OC1CCCC1 [Example 15, N-[2-(3-Cyclopentyloxy-4-methoxyphenyl)ethyl]oxamide]
- serum TNF levels [1]: reduction in serum TNF levels
- survival rate ([2]; P acnes/LPS model, control group 100% lethality): 80%
- TNF production ([2]; P acnes/LPS treated mice): inhibition of TNF production
- protection from the lethal effects of endotoxin shock [3]: protection from the lethal effects of endotoxin shock

SMILES: COc1ccc(CCNC(=O)C(N)=O)cc1OC [Example 8, N-[2-(3,4-Dimethoxyphenyl)ethyl]oxamide]
- protection from the lethal effects of endotoxin shock [3]: protected the animals from endotoxic induced shock
- in vivo TNF levels ([3]; one or both of the in vivo assays): inhibited in vivo TNF levels
